Reference: ChEMBL document CHEMBL1201862, “PubChem BioAssay data set” (2004)
Activity calls are given as the source filed them.

Assays:
[1] = molecular target: Protein phosphatase methylesterase 1 (Homo sapiens, UniProt Q9Y570); test: PME-1 inhibitors by competitive ABPP, late-stage follow-up, gel-based ABPP, IC50, set 1 (AID 463130); type: functional
Mu-type opioid receptor = Mu-type opioid receptor (Homo sapiens, UniProt P35372); test: SAR Analysis of Antagonists of the MOR Receptor using an Image-Based Assay - Set 3. [Related pubchem assays (depositor defined):AID1777, AID1785, AID1786, AID1966, AID2133, AID2136, AID2284, AID2285, AID2420]; type: functional
Mu-type opioid receptor, sequence (P35372 whole entry): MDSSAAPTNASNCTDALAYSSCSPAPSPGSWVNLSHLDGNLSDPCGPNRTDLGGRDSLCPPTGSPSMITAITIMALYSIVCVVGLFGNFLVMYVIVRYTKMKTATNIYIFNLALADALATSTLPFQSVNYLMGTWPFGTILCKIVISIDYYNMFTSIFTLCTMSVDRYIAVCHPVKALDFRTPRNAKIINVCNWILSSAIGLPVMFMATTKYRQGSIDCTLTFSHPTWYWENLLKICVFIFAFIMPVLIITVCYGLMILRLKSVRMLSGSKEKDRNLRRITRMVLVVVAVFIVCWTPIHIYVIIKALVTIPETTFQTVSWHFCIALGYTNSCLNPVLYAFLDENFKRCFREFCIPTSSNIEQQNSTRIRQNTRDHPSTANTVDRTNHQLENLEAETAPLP

[2] = molecular target: Delta-type opioid receptor (Homo sapiens, UniProt P41143); test: SAR Analysis of Antagonists of the DOR Receptor using an Image-Based Assay - Set 3. [Related pubchem assays (depositor defined):AID1777, AID1785]; type: functional;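 further: U2OS cells expressing DOR1 and beta-arrestin GFP stimulated with 100 nM SNC80; imaging of GFP-tagged beta-arrestin moving into spots after receptor activation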
Delta-type opioid receptor, sequence (P41143 whole entry): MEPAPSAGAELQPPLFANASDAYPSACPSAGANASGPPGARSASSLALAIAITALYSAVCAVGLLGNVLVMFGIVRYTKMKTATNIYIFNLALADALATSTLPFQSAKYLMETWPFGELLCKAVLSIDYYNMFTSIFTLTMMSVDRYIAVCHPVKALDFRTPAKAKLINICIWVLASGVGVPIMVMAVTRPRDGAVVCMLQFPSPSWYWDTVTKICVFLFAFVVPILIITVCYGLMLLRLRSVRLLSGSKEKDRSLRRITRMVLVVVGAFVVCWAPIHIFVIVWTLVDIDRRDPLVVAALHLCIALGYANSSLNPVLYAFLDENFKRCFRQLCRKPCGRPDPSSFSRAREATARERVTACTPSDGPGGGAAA

[3] = molecular target: T1, Kappa-type opioid receptor (Homo sapiens, UniProt P41145); test: SAR analysis of small molecule antagonists of the kappa opioid receptor via a luminescent beta-arrestin assay - Set 3. [Related pubchem assays (depositor defined):AID1777, AID1778, AID1785, AID1786, AID1966, AID2133, AID2136, AID2285, AID2495]; type: functional
T1 sequence (P41145 whole entry): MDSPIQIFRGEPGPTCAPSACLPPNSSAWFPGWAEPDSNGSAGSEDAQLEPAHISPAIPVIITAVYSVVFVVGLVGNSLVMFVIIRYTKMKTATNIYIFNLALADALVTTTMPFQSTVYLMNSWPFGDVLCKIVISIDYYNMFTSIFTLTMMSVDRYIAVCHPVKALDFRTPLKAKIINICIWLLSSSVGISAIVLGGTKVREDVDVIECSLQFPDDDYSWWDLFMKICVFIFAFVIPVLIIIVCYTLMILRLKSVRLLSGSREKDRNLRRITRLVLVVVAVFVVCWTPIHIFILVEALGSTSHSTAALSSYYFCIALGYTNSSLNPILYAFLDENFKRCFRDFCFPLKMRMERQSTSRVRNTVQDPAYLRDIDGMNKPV

[4] = molecular target: T1, Kappa-type opioid receptor; test: SAR analysis of Antagonists of the Kappa Opioid Receptor (KOR) using an Image-Based Assay - Set 3. [Related pubchem assays (depositor defined):AID1777, AID1785]; type: functional
Ion channel NompC = Ion channel NompC (Danio rerio, UniProt Q7T1G6); test: Dose response cell-based high-throughput screening assay for agonists of the transient receptor potential channel N1 (TRPN1). [Related pubchem assays (depositor defined):AID1424, AID1448]; type: functional
Mucolipin-3 = molecular target: T2, Mucolipin-3 (Homo sapiens, UniProt Q8TDD5); test: Fluorescence counterscreen assay for […] agonists: dose response cell-based high-throughput screening assay to identify agonists of the transient receptor potential channel ML3 (TRPML3). [Related pubchem assays: 1424, 1448 ]; type: functional
T2 sequence (Q8TDD5 whole entry): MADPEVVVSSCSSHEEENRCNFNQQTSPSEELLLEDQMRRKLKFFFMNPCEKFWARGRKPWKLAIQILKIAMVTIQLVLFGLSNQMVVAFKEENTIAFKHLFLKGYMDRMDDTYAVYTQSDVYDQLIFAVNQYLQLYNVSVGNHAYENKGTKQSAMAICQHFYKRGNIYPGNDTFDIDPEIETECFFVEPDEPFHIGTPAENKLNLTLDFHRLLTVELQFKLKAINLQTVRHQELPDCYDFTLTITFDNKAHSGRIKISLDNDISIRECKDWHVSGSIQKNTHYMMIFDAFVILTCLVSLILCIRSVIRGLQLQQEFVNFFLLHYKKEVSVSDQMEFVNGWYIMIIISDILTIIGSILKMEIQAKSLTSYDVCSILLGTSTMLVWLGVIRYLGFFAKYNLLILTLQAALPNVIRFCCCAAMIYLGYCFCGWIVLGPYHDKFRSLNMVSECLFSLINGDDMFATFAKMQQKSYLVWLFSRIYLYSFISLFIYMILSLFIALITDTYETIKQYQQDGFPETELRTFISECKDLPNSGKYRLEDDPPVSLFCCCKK

BJ [5] = test: cytotoxicity toward BJ-TERT fibroblasts, dose response, cell-based, RAS-independent, luminescence (AID 1933); type: functional; details: Homo sapiens
BJ [6] = test: cells; type: functional, cell-based; details: Homo sapiens
BJ [7] = test: cytotoxicity toward BJ-TERT-LT-ST fibroblasts, dose response, cell-based, RAS-independent, luminescence (AID 1935); type: functional; details: Homo sapiens;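 further: BJ fibroblasts immortalized with TERT plus LT and ST oncogenes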
[8] = cytotoxicity toward DRD oncogenic fibroblasts, dose response, cell-based, non-viral oncogenic, luminescence (AID 1934); type: functional; details: Homo sapiens
CAAX prenyl protease 2 [9] = molecular target: T3, CAAX prenyl protease 2 (Saccharomyces cerevisiae S288c, UniProt Q03530); type: biochemical
T3 sequence (Q03530 whole entry): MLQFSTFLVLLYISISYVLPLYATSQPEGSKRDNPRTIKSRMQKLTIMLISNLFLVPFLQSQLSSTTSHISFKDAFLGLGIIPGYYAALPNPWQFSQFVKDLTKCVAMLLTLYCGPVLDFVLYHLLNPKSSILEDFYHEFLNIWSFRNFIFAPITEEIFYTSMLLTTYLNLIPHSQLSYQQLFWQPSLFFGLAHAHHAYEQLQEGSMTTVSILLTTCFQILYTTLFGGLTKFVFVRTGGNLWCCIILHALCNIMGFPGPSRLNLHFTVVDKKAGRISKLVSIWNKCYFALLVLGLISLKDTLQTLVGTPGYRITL

[10] = mammalian cell cytotoxicity, dose response, cytotoxicity control, plate reader, cherry-pick samples (AID 504397); type: functional, cell-based
CAAX prenyl protease 2 [11] = molecular target: CAAX prenyl protease 2 (Homo sapiens, UniProt Q9Y256); test: human Rce1 protease inhibitors, dose response, biochemical, yeast membranes, quenched-peptide fluorescence, cherry-pick (AID 588849)
HEK293 [12] = test: NOD1 signaling inhibitors, primary screen, cell-based, luminescence, uHTS (AID 1578); type: functional; details: Homo sapiens
HEK293 [13] = test: cells; type: functional, cell-based; details: Homo sapiens
[14] = molecular target: Nucleotide-binding oligomerization domain-containing protein 2 (Homo sapiens, UniProt Q9HC29); test: NOD2 signaling inhibitors, cell-based, luminescence, uHTS, HEK293 (AID 1566); type: functional
Nucleotide-binding oligomerization domain-containing protein 2, sequence (Q9HC29 whole entry, the tested form may be a part): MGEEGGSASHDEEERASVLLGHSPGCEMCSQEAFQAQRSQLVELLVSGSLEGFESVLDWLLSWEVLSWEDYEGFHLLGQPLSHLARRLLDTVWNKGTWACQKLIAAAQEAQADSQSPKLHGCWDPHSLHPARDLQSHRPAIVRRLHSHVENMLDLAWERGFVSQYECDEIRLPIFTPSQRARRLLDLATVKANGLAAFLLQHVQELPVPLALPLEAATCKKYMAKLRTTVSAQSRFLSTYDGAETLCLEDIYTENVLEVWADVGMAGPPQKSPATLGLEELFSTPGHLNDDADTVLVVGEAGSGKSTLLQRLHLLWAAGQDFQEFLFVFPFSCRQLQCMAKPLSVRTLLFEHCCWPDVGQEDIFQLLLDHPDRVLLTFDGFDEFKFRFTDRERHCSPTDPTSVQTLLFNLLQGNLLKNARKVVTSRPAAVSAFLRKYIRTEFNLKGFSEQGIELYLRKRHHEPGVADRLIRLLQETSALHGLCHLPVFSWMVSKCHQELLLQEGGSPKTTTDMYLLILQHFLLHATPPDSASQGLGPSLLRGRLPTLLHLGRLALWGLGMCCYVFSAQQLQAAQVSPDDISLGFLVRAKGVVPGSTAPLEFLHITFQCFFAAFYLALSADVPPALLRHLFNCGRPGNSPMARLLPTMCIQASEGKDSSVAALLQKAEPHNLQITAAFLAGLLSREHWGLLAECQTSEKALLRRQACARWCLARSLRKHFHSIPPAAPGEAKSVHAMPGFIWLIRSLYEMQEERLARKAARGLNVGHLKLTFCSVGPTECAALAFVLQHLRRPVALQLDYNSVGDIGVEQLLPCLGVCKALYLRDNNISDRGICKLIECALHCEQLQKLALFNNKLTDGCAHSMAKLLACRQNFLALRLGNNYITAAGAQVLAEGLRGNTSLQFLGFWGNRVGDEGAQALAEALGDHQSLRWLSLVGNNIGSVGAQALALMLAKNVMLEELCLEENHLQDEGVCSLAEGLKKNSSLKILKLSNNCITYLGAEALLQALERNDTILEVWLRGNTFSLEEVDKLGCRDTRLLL

HEK293 [15] = test: NOD2 signaling inhibitors in MDP-stimulated cells, cell-based, uHTS, luminescence (AID 2001); type: functional; details: Homo sapiens
HEK293 [16] = test: cells; type: functional, cell-based; details: Homo sapiens; remark: listed apart in the source
Cannabinoid receptor 2 [17] = molecular target: T4, Cannabinoid receptor 2 (Homo sapiens, UniProt P34972); test: SAR analysis of antagonists of the Cannabinoid Receptor 2 using an Image-Based Assay - Set 2. [Related pubchem assays (depositor defined):AID1961, AID1965]; type: functional
T4 sequence (P34972 whole entry): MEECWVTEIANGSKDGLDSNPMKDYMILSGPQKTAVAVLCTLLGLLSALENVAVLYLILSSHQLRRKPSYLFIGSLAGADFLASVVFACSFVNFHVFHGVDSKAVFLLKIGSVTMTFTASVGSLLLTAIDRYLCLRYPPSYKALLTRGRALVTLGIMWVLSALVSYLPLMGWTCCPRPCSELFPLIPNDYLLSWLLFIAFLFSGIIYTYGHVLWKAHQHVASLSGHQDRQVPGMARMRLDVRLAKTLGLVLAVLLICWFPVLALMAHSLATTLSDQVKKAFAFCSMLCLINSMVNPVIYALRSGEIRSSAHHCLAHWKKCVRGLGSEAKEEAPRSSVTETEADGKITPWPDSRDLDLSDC

[18] = molecular target: G-protein coupled receptor 55 (Homo sapiens, UniProt Q9Y2T6); test: SAR analysis of selective Agonists of GPR55 using an Image-Based Assay - Set 2. [Related pubchem assays (depositor defined):AID1961, AID1965]; type: functional
G-protein coupled receptor 55, sequence (Q9Y2T6 whole entry): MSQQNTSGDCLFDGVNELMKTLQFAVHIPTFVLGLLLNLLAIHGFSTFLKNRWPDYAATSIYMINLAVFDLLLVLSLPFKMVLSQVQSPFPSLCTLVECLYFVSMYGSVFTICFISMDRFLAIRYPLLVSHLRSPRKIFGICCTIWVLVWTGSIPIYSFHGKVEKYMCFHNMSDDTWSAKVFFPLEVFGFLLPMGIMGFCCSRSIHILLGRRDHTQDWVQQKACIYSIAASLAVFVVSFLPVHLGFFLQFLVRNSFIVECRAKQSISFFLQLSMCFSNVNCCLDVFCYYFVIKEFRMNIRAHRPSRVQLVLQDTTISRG

Cannabinoid receptor 2 [19] = molecular target: T4, Cannabinoid receptor 2; test: SAR analysis of agonists of the Cannabinoid Receptor 2 using an Image-Based Assay - Set 2. [Related pubchem assays (depositor defined):AID1961, AID1965]; type: functional
[20] = molecular target: T5, G-protein coupled receptor 35 (Homo sapiens, UniProt Q9HC97); test: SAR analysis of Agonists of the GPR35 Receptor using an Image-Based Assay - Set 3. [Related pubchem assays (depositor defined):AID1961, AID1965]; type: functional
T5 sequence (Q9HC97 whole entry): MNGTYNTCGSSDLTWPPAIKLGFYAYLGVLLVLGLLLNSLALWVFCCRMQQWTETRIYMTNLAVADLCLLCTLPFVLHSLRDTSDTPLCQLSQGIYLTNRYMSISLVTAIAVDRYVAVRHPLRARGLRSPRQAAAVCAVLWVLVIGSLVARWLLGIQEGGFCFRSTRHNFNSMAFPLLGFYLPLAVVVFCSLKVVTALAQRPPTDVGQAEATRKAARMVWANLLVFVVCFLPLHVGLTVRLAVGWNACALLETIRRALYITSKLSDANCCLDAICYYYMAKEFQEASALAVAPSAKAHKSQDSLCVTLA

Cannabinoid receptor 1 [21] = molecular target: T6, Cannabinoid receptor 1 (Homo sapiens, UniProt P21554); test: SAR analysis of antagonists of the Cannabinoid Receptor 1 using an Image-Based Assay - Set 3. [Related pubchem assays (depositor defined):AID1961, AID1965]; type: functional
T6 sequence (P21554 whole entry): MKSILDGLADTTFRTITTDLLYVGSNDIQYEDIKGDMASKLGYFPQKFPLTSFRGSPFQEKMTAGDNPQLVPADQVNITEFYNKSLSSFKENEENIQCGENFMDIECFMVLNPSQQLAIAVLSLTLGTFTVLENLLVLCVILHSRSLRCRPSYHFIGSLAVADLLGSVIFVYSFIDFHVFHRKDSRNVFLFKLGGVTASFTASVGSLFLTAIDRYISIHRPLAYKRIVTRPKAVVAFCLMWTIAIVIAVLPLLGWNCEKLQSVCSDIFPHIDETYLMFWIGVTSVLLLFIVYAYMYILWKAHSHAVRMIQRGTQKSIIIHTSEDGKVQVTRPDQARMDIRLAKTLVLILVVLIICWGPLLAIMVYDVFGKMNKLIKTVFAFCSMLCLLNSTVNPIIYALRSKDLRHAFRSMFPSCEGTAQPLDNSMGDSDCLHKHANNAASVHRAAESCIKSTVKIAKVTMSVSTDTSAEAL

Cannabinoid receptor 1 [22] = molecular target: T6, Cannabinoid receptor 1; test: SAR analysis of agonists of the Cannabinoid Receptor 1 using an Image-Based Assay - Set 3. [Related pubchem assays (depositor defined):AID1961, AID1965]; type: functional
[23] = molecular target: T5, G-protein coupled receptor 35; test: SAR analysis of Antagonists of the GPR35 Receptor using an Image-Based Assay - Set 4. [Related pubchem assays (depositor defined):[…]]; type: functional
[24] = molecular target: Glucose-6-phosphate 1-dehydrogenase (Homo sapiens, UniProt P11413); test: human G6PD enzyme inhibitors, dose response, selectivity assay for P. falciparum G6PD inhibitor project, biochemical, fluorescence (AID 504792); type: functional
[25] = molecular target: C-C chemokine receptor type 6 (Homo sapiens, UniProt P51684); test: CCR6 receptor antagonists, dose response, cell-based, luminescent beta-arrestin readout (AID 504728); type: functional
C-C chemokine receptor type 6, sequence (P51684 whole entry): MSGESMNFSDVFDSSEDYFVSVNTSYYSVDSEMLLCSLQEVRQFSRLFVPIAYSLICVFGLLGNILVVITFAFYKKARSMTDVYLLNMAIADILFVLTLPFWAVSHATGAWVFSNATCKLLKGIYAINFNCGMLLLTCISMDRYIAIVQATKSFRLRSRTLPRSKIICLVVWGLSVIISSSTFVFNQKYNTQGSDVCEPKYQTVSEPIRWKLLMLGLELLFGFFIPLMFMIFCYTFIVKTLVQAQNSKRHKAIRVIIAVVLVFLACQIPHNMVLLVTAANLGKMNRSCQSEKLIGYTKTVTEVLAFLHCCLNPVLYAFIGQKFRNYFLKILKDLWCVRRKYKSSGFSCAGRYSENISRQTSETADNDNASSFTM

Hexokinase HKDC1 = molecular target: T7, Hexokinase HKDC1 (Homo sapiens, UniProt Q2TB90); test: HKDC1 hexokinase activators, dose response, biochemical, W721R variant (AID 504730); type: functional
T7 sequence (Q2TB90 whole entry): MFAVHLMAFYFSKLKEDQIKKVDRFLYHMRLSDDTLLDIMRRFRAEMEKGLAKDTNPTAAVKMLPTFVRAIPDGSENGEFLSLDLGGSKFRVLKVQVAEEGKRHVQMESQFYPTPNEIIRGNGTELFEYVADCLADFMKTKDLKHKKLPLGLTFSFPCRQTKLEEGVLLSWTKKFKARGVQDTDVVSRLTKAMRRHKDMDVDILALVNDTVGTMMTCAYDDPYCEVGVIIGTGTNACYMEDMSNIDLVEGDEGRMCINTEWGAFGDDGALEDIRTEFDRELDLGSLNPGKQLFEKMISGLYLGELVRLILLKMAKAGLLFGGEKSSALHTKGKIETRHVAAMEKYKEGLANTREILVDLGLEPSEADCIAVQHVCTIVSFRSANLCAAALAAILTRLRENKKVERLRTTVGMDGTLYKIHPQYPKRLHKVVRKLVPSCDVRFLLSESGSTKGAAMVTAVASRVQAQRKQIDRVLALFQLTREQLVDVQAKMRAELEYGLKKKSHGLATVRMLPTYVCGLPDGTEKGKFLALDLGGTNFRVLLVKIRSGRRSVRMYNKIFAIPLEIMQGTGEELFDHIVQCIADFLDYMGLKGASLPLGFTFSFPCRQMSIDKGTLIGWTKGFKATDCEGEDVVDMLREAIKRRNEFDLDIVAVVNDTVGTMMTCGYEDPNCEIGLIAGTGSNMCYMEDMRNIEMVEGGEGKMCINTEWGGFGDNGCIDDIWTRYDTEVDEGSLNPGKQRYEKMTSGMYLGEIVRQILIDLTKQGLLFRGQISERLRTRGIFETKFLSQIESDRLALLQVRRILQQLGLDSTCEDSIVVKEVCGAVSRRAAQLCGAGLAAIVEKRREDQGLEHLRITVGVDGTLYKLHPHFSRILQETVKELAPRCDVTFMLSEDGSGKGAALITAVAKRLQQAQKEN

Beta-galactosidase = Beta-galactosidase (Escherichia coli, UniProt Q8VNN2); test: beta-galactosidase enzyme inhibitors and activators, dose response, artefact control for CCR6 antagonist project, biochemical, E. coli enzyme, set 3 (AID 504712); type: functional
Hexokinase-1 = Hexokinase-1 (Homo sapiens, UniProt P19367); test: hexokinase 1 activators, dose response, selectivity assay for HKDC1 activator project, biochemical (AID 504762); type: functional
[26] = molecular target: Heat shock protein HSP 90-alpha (Homo sapiens, UniProt P07900); type: functional, organism-based
[27] = Fluorescence-based cell-based high throughput dose response assay for inhibitors of the interaction of nucleotide-binding oligomerization domain containing 2 (NOD2) and the receptor-interacting serine-threonine kinase 2 (RIPK2).; type: functional; details: Homo sapiens
Beta Lactamase = Beta Lactamase (Pseudomonas aeruginosa, UniProt Q932Y6); test: beta-lactamase reporter inhibitor potency, dose response, artefact control for NOD2-RIPK2 interaction inhibitor project, BLA reporter cells, FRET fluorescence (AID 651552); type: functional, cell-based
[28] = molecular target: DNA damage-inducible transcript 3 protein (Mus musculus, UniProt P35639); type: functional, Cricetulus griseus
X-box-binding protein 1 = X-box-binding protein 1 (Homo sapiens, UniProt P17861); type: functional, Cricetulus griseus;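 further: confirmatory dose-response counter-screen serving a CHOP assay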
[29] = molecular target: Peroxisome proliferator-activated receptor gamma (Homo sapiens, UniProt P37231); test: PPARg partial agonists, dose response, cell-based, luminescence, assay provider (AID 504447); type: functional
Peroxisome proliferator-activated receptor gamma, sequence (P37231 whole entry): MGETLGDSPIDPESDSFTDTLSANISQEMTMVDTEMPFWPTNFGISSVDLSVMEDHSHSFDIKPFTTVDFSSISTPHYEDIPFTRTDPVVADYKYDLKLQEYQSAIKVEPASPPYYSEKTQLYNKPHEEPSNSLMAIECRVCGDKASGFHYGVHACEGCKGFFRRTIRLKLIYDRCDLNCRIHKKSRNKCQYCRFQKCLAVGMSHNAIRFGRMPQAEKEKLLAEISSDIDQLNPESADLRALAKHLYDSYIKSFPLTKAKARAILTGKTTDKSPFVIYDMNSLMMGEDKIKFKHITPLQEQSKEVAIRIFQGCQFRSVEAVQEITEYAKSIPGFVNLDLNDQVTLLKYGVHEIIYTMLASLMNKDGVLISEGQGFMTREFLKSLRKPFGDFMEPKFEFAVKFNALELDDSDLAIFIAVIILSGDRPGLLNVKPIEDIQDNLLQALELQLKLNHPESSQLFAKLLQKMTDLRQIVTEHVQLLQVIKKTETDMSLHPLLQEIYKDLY

[30] = molecular target: Peroxisome proliferator-activated receptor alpha (Homo sapiens, UniProt Q07869); test: Late stage assay provider counterscreen for partial agonists of the peroxisome proliferator-activated receptor gamma (PPARg): Luminescence-based cell-based dose response assay for partial agonists of the peroxisome proliferator-activated receptor alpha (PPARA). [Related pubchem assays (depositor defined):AID1051, AID1300, AID1319, AID1679, AID1808, AID504446, AID504447, AID504452, AID504453, AID631]; type: functional

Protein phosphatase methylesterase 1, sequence (Q9Y570 whole entry): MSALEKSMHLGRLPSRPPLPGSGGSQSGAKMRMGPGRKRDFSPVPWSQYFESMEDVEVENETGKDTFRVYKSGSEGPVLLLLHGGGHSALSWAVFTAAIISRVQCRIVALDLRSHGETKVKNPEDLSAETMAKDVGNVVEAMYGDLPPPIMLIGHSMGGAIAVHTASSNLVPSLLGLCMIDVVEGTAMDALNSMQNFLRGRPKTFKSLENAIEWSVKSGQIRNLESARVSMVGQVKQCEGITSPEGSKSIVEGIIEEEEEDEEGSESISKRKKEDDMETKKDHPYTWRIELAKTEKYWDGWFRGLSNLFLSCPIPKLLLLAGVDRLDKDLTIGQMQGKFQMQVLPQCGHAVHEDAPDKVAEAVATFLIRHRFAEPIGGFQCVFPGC

COC(=O)N1C(=O)[C@](c2ccsc2)(C(C)C)N1C(=O)OC
IC50 [1]: 10.7 µM (inactive)

Cc1ccc(Cl)cc1N1CCN(CCNC(=O)Cn2c(=O)c3cccn3c3cccnc32)CC1
IC50 (Mu-type opioid receptor): 3.98 µM (active)
IC50 [2]: > 32 µM (inactive)
IC50 [3]: > 20 µM (inactive)
IC50 [4]: > 32 µM (inactive)

O=C(Nc1ccccc1)Nc1ccc2snnc2c1
EC50 (Ion channel NompC): > 29.9 µM (inactive)
EC50 (Mucolipin-3): > 29.9 µM (not active)

O=C1C(=O)N(C/C=C/c2ccccc2)c2ccccc21
EC50 (BJ [5]): 8.22 µM (inconclusive)
EC50 (BJ [6]): > 150 µM (not active)
EC50 (BJ [7]): 14.9 µM (active)
EC50 [8]: 39.8 µM (active)
AC50 (CAAX prenyl protease 2 [9]): 1.92 µM (active)
AC50 [10]: 64.6 µM (active)
AC50 (CAAX prenyl protease 2 [11]): 5.17 µM (active)

Cc1c(/C=N/NC(=O)c2ccccc2O)c2ccccn2c1C(=O)c1ccc(F)cc1
EC50 (HEK293 [12]): 10.3 µM (active)
IC50 (HEK293 [13]): 10.9 µM (active)
EC50 [14]: 6.46 µM (active)
IC50 (HEK293 [15]): 6.49 µM (active)
IC50 (HEK293 [16]): 11.5 µM (active)

CCN(CC)S(=O)(=O)c1ccc(N2CCCCC2)c(C(=O)N2CCN(c3ccccc3)CC2)c1
IC50 (Cannabinoid receptor 2 [17]): > 32 µM (inactive)
EC50 [18]: > 32 µM (inactive)
EC50 (Cannabinoid receptor 2 [19]): > 32 µM (inactive)
EC50 [20]: > 32 µM (inactive)
IC50 (Cannabinoid receptor 1 [21]): 9.36 µM (active)
EC50 (Cannabinoid receptor 1 [22]): > 32 µM (inactive)
IC50 [23]: > 32 µM (inactive)

COC(=O)C1=C(C(=O)OC)SC2(S1)C(C(=O)OC)=C(C(=O)OC)Sc1c2ssc1=O
IC50 [24]: > 80 µM (inactive)
IC50 [25]: 28.5 µM (inactive)
EC50 (Hexokinase HKDC1): 33.1 µM (inactive)
IC50 (Beta-galactosidase): > 66.6 µM (inactive)
EC50 (Hexokinase-1): 49.6 µM (inactive)
AC50 [26]: 4.21 µM (active)
IC50 [27]: 0.727 µM (active)
IC50 (Beta Lactamase): 14.1 µM (inactive)

O=C(Nc1ccccc1O)c1c(O)nc2c(c1O)CCCC2
Absolute IC50 (CHOP) [28]: 10 µM
Absolute IC50 (XBP1) (X-box-binding protein 1): 10 µM

CCOc1cccc(/C=C2/SC(=S)N(CCC(=O)O)C2=O)c1
EC50 [29]: 2.6 µM (active)
EC50 [30]: > 3 µM (inactive)
